In US20230365546A1, “5-SUBSTITUTED INDOLE 3-AMIDE DERIVATIVES, PREPARATION METHOD AND USE THEREOF” (ORIGIANT PHARMACEUTICAL CO., LTD, priority 2020, published 2023):

Legend:
[1] = system: HT-29 cells; assay: Protection against programmed necrosis of HT-29 cells (TNF α/Smac mimetic/Z-VAD-FMK, CCK8); type: cell-based; settings: Homo sapiens, TNF α/Smac mimetic/Z-VAD-FMK induced 24 h, CCK8, read-out: HT-29 (EC50)
Description: In vitro protection against programmed necrosis of HT-29 cells was conducted by ourselves.
DMEM medium was purchased from Gibco Inc., penicillin and streptomycin were purchased from HyClone Inc., TNF α was purchased from PeproTech Inc., Smac mimetic and Z-VAD-FMK were purchased from Selleck Inc., CCK8 was purchased from Medchem Express Inc.
HT-29 cells (colon cancer cells) were cultured in DMEM+10% FBS+Penicillin/Streptomycin medium. During the experiments, HT-29 cells in logarithmic growth phase were harvested, seeded in a 96-well plate at specific numbers per well (typically 8×10^3 cells/well of adherent cells) and cultured overnight in a 37° C., 5% CO2 cell culture incubator. The next day, the compounds to be tested were diluted with culture medium to the corresponding concentrations and added into the corresponding wells of a 96-well plate, with 3 replicate wells for each sample, and a Vehicle control group and a blank Control group containing only culture medium were set at the same time. […] The absorbance was measured at 495 nm wavelength using a microplate reader, and the protection rate of the drug on the cells necrosis was calculated according to the following formula:
Protection rate of cell necrosis=[(X−C0)/(C−C0)]×100%
Wherein, C, C0, and X represent the mean absorbance values of the Vehicle control group, Blank control group and Drug treatment group, respectively.

[2] = molecular target: RIPK1 (Homo sapiens (Human), UniProt Q13546); assay: In vitro kinase assay (Eurofins Kinase Profiler), IC50; type: biochemical; settings: 0.001-10 μM, read-out: RIPK 1 (IC50)
RIPK1, sequence (Q13546 whole entry): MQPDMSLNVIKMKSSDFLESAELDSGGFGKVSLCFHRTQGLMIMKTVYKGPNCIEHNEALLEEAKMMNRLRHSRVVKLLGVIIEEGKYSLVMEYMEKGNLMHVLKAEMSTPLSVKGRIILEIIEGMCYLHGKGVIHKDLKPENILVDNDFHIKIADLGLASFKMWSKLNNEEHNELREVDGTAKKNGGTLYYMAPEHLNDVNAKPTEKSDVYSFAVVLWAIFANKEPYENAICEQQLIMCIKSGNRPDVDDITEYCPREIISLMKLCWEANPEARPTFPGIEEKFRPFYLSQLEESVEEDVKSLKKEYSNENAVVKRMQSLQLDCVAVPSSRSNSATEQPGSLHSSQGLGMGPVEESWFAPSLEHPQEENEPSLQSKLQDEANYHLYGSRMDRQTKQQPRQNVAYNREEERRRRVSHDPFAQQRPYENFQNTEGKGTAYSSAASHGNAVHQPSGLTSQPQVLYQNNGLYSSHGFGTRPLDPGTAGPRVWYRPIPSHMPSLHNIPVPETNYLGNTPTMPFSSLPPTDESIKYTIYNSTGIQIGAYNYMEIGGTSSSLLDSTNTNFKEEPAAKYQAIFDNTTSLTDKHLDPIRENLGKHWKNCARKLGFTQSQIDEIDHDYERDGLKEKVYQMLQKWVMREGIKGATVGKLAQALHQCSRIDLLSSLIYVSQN

| Structure (SMILES) | EC50 [1] | IC50 [2] |
| --- | --- | --- |
| C[C@H](NC(=O)c1c[nH]c2ccc(-c3ccc4nc(NC(=O)C5CCCC5)sc4c3)cc12)c1cccc(F)c1 [Compound 48] | 1 to 10 nM | 10 to 100 nM |
| C[C@H](NC(=O)c1c[nH]c2ccc(-c3ccc4nc(NC(=O)C5CCCCC5)sc4c3)cc12)c1cccc(F)c1 [Compound 49] | 10 to 100 nM | 10 to 100 nM |
| C[C@H](NC(=O)c1c[nH]c2ccc(-c3ccc4nc(NC(=O)C(C)(C)C)sc4c3)cc12)c1cccc(F)c1 [Compound 50] | 10 to 100 nM | 10 to 100 nM |
| C[C@H](NC(=O)c1c[nH]c2ccc(-c3ccc4nc(NC(=O)C5CCOCC5)sc4c3)cc12)c1cccc(F)c1 [Compound 51] | 10 to 100 nM | 10 to 100 nM |
| C[C@H](NC(=O)c1c[nH]c2ccc(-c3ccc4nc(NC(=O)C(F)(F)F)sc4c3)cc12)c1cccc(F)c1 [Compound 52] | 10 to 100 nM | 100 to 1000 nM |
| C[C@H](NC(=O)c1c[nH]c2ccc(-c3ccc4nc(NC(=O)C5CCN(C)CC5)sc4c3)cc12)c1cccc(F)c1 [Compound 53] | 100 to 1000 nM | 100 to 1000 nM |
| Cn1cc(C(=O)NCc2cc(F)ccc2F)c2cc(-c3ccc4nc(NC(=O)C5CC5)sc4c3)ccc21 [Compound 54] | < 1 nM | 10 to 100 nM |
| CC(C)C(=O)Nc1nc2ccc(-c3ccc4[nH]cc(C(=O)N[C@@H](C)c5cccc(F)c5)c4c3)cc2s1 [Compound 55] | 1 to 10 nM | 10 to 100 nM |
| CC(C)n1cc(C(=O)NCc2cc(F)ccc2F)c2cc(-c3ccc4nc(NC(=O)C5CC5)sc4c3)ccc21 [Compound 56] | 1 to 10 nM | 10 to 100 nM |
| CCCn1cc(C(=O)NCc2cc(F)ccc2F)c2cc(-c3ccc4nc(NC(=O)C5CC5)sc4c3)ccc21 [Compound 57] | 10 to 100 nM | 100 to 1000 nM |
| CCCCn1cc(C(=O)NCc2cc(F)ccc2F)c2cc(-c3ccc4nc(NC(=O)C5CC5)sc4c3)ccc21 [Compound 58] | 100 to 1000 nM | 100 to 1000 nM |
| C[C@H](NC(=O)c1n[nH]c2ccc(-c3ccc4nc(NC(=O)C5CC5)sc4c3)cc12)c1cccc(F)c1 [Compound 59] | 1 to 10 nM | 10 to 100 nM |
| COc1cc(F)ccc1NC(=O)c1c[nH]c2ncc(-c3ccc4nc(NC(=O)C5CC5)sc4c3)cc12 [Compound 60] | ≥ 1000 nM | ≥ 1000 nM |
| COc1cc(F)ccc1NC(=O)c1n[nH]c2ccc(-c3ccc4nc(NC(=O)C5CC5)sc4c3)cc12 [Compound 61] | ≥ 1000 nM | ≥ 1000 nM |
| C[C@H](NC(=O)c1c[nH]c2ncc(-c3ccc4nc(NC(=O)C5CC5)sc4c3)cc12)c1cccc(F)c1 [Compound 62] | 1 to 10 nM | 100 to 1000 nM |
| COc1ccc(NC(=O)c2c[nH]c3ncc(-c4ccc5nc(NC(=O)C6CC6)sc5c4)cc23)cc1OC [Compound 63] | 10 to 100 nM | 10 to 100 nM |
| COc1ccc(CNC(=O)c2c[nH]c3ncc(-c4ccc5nc(NC(=O)C6CC6)sc5c4)cc23)cc1OC [Compound 64] | 10 to 100 nM | 100 to 1000 nM |
| COc1ccc(CNC(=O)c2cn(C)c3ccc(-c4ccc5nc(NC(=O)C6CC6)sc5c4)cc23)cc1OC [Compound 65] | 10 to 100 nM | 100 to 1000 nM |
| Cn1cc(C(=O)N2CCN(Cc3ccc4c(c3)OCO4)CC2)c2cc(-c3ccc4nc(NC(=O)C5CC5)sc4c3)ccc21 [Compound 66] | ≥ 1000 nM | ≥ 1000 nM |
| COc1cc(CN2CCN(C(=O)c3cn(C)c4ccc(-c5ccc6nc(NC(=O)C7CC7)sc6c5)cc34)CC2)cc(OC)c1OC [Compound 67] | ≥ 1000 nM | ≥ 1000 nM |
| C[C@H](NC(=O)c1cn(C)c2ccc(-c3ccc(CN4CCN(C)CC4)cc3)cc12)c1cccc(F)c1 [Compound 68] | ≥ 1000 nM | ≥ 1000 nM |
| Cc1noc(C)c1-c1cnc2[nH]cc(C(=O)N[C@@H](C)c3cccc(F)c3)c2c1 [Compound 69] | ≥ 1000 nM | ≥ 1000 nM |
| C[C@H](NC(=O)c1cn(C)c2ccc(-c3ccc(C(=O)N4CCOCC4)cc3)cc12)c1cccc(F)c1 [Compound 70] | 100 to 1000 nM | ≥ 1000 nM |
| C[C@H](NC(=O)c1cn(C)c2ccc(-c3ccnn3C3CCCCO3)cc12)c1cccc(F)c1 (stereo partly shown) [Compound 71] | ≥ 1000 nM | ≥ 1000 nM |

| Structure (SMILES) | EC50 [1] | IC50 [2] |
| --- | --- | --- |
| C[C@H](NC(=O)c1cn(C)c2ccc(-c3ccc(N4CCOCC4)cc3)cc12)c1cccc(F)c1 [Compound 72] | ≥ 1000 nM | ≥ 1000 nM |
| C[C@H](NC(=O)c1cn(C)c2ccc(-c3ccc(N4CCOCC4)nc3)cc12)c1cccc(F)c1 [Compound 73] | ≥ 1000 nM | ≥ 1000 nM |
| C[C@H](NC(=O)c1c[nH]c2ncc(-c3ccc(C(=O)N4CCOCC4)cc3)cc12)c1cccc(F)c1 [Compound 74] | 100 to 1000 nM | 100 to 1000 nM |
| C[C@H](NC(=O)c1c[nH]c2ncc(-c3ccnn3C3CCCCO3)cc12)c1cccc(F)c1 (stereo partly shown) [Compound 75] | 100 to 1000 nM | ≥ 1000 nM |
| C[C@H](NC(=O)c1c[nH]c2ncc(-c3ccc(N4CCOCC4)cc3)cc12)c1cccc(F)c1 [Compound 76] | 100 to 1000 nM | 100 to 1000 nM |
| C[C@H](NC(=O)c1c[nH]c2ncc(-c3ccc(N4CCOCC4)nc3)cc12)c1cccc(F)c1 [Compound 77] | 100 to 1000 nM | 100 to 1000 nM |
| C[C@H](NC(=O)c1cn(C)c2ccc(-c3cc[nH]n3)cc12)c1cccc(F)c1 [Compound 78] | 100 to 1000 nM | ≥ 1000 nM |
| Cn1cc(C(=O)NCc2ccc(F)cc2)c2cc(-c3ccc4nc(NC(=O)C5CC5)sc4c3)ccc21 [Compound 79] | 10 to 100 nM | 100 to 1000 nM |
| O=C(NCc1ccc(F)cc1F)c1c[nH]c2ncc(-c3ccc4nc(NC(=O)C5CC5)sc4c3)cc12 [Compound 80] | 10 to 100 nM | 100 to 1000 nM |
| C[C@H](NC(=O)c1c[nH]c2ccc(-c3ccc4nc(NC(=O)C5CC5)[nH]c4c3)cc12)c1cccc(F)c1 [Compound 81] | 100 to 1000 nM | 10 to 100 nM |
| C[C@H](NC(=O)c1c[nH]c2ccc(-c3ccn4nc(NC(=O)C5CC5)nc4c3)cc12)c1cccc(F)c1 [Compound 82] | 100 to 1000 nM | 10 to 100 nM |
| C[C@H](NC(=O)c1c[nH]c2ccc(-c3ccc4c(N)ncnn34)cc12)c1cccc(F)c1 [Compound 83] | 100 to 1000 nM | 100 to 1000 nM |
| Cc1noc(C)c1CNC(=O)c1c[nH]c2ccc(-c3ccc4nc(NC(=O)C5CC5)sc4c3)cc12 [Compound 84] | 100 to 1000 nM | 100 to 1000 nM |
| O=C(NCc1ccn[nH]1)c1c[nH]c2ccc(-c3ccc4nc(NC(=O)C5CC5)sc4c3)cc12 [Compound 85] | ≥ 1000 nM | ≥ 1000 nM |
| Cn1cc(CNC(=O)c2c[nH]c3ccc(-c4ccc5nc(NC(=O)C6CC6)sc5c4)cc23)cn1 [Compound 86] | ≥ 1000 nM | ≥ 1000 nM |
| O=C(NCc1ccc2[nH]ccc2c1)c1c[nH]c2ccc(-c3ccc4nc(NC(=O)C5CC5)sc4c3)cc12 [Compound 87] | ≥ 1000 nM | ≥ 1000 nM |
| C[C@H](NC(=O)c1c[nH]c2ccc(-c3ccc4nc(NC(=O)C5CC5)sc4n3)cc12)c1cccc(F)c1 [Compound 88] | 1 to 10 nM | 10 to 100 nM |
| C[C@H](NC(=O)c1cn(C)c2ccc(-c3ccc4nc(NC(=O)C5CC5)sc4n3)cc12)c1cccc(F)c1 [Compound 89] | 1 to 10 nM | 10 to 100 nM |
| COCC(=O)Nc1nc2ccc(-c3ccc4c(c3)c(C(=O)N[C@@H](C)c3cccc(F)c3)cn4C)nc2s1 [Compound 91] | 100 to 1000 nM | 100 to 1000 nM |
| COCC(=O)Nc1nc2ccc(-c3ccc4[nH]cc(C(=O)N[C@@H](C)c5cccc(F)c5)c4c3)cn2n1 [Compound 92] | 100 to 1000 nM | 100 to 1000 nM |
| O=C(NCc1ccc(N2CCOCC2)cc1)c1c[nH]c2ccc(-c3ccc4nc(NC(=O)C5CC5)sc4c3)cc12 [Compound 93] | ≥ 1000 nM | ≥ 1000 nM |
| COCC(=O)Nc1nc2ccc(-c3ccc4[nH]cc(C(=O)NCc5cccc(F)c5)c4c3)cn2n1 [Compound 95] | 100 to 1000 nM | 100 to 1000 nM |
| COCC(=O)Nc1nc2ccc(-c3ccc4c(c3)c(C(=O)N[C@@H](C)c3cccc(F)c3)cn4C)cn2n1 [Compound 96] | 10 to 100 nM | 10 to 100 nM |
